In brackets after ≈: the same amount, converted by molar mass.
Tests used:
[1] = Half-life in liver microsomes (Example 4); format: in vitro ADME; settings: rat and human liver microsomes, species of the value not stated
Source text: Metabolic pathways that may disrupt the activity of compounds with aryl methoxy groups were investigated.

[2] = test system: METH-impaired PPI in C57/B6 mice; experiment: PPI test, methamphetamine-impaired prepulse inhibition; format: in vivo, mouse; settings: mice, compound 10 mg/kg i.p. 15 min before METH 2 mg/kg i.p.
Description: All animal experiments conducted at NTU were approved by the Institutional Animal Care and Use Committee of College of Medicine, National Taiwan University. C57/B6 (8-10 weeks) mice were used for the PPI test and Wistar rats (8-9 weeks) were used in the migraine model. Animals were housed in an animal room with a 12-h light/12-h dark cycle and free access to food and water.
The PPI test was conducted with a PPI apparatus (SR-LAB, San Diego Instruments, San Diego, Calif.) consisting of a startle chamber equipped with various programming acoustic stimulations. After acclimation, the mouse was gently placed in the startle chamber for a 4 min acclimation period with a background noise of 65 dB, which continued throughout the whole PPI test session. One PPI test session consisted of 4 types of startle trials, including the trial with the startle pulse (115 dB) alone (PULSEALONE; 115 dB, 20 ms), two trials with the startle pulse paired with 71 and 77 dB prepulses, respectively (PREPULSE+PULSE; 71 dB+115 dB and 77 dB+115 dB), and the trial without stimulus (NOSTIM; background 65 dB only). A test session started and ended, respectively, with four NOSTIM trials and four PULSEALONE trials. In between, each of the four types of trials was presented 14 times randomly, that is, 56 trials were given in a test session. The intertrial interval was given randomly from 5 to 20 s. In the PREPULSE+PULSE trial, a 71 or 77 dB prepulse was given 120 ms before the 115 dBpulse. The magnitude of PPI (PPI %) was determined, after summarizing the startle responses in PULSEALONE and PREPULSE+PULSE trials, according to the equation (PULSEALON−PREPULSE+PULSE)/PULSEALONE×100%. The tested compound or vehicle was given to the animal for 15 min, followed by methamphetamine (2 mg/kg). The PPI test was conducted 10 min after injection of methamphetamine. Data were expressed as the mean±S.E.M. Statistical comparisons among groups were analyzed by ANOVA with Tukey post hoc test, and differences between groups were analyzed by Student's t-test. Two-way ANOVA with Bonferroni's post hoc test was used to analyze differences in the time courses of locomotor activity among groups. Differences were considered significant if P<0.05.
Methamphetamine and apomorphine were dissolved in normal saline for i.p. And s.c. Injections, respectively. Tested compounds and haloperidol, when given by i.p. Injection, were dissolved in a vehicle containing 20% dmso, 20% Cremophor® el (polyoxyethylene castor, sigma-aldrich) and 60% normal saline. Furosemide was dissolved (20 nmole/μL) in dimethylsulfoxide for intra-cerebellar microinjection the i.p. or s.c. Injection volume was 10 mL/kg.

[3] = Microsomal stability assay, human liver microsomes; format: in vitro ADME; settings: 10 μM test compound, 0.5 mg/mL protein, 37° C.
Description: (§1) 4 μL of 1 mM test compound at a final concentration of 10 μM dissolved in DMSO/ACN/Methanol/Ethanol was preincubated at 37° C. for 5 minutes on a digital heating shaking dry bath (Fischer scientific, Pittsburgh, Pa.) in a mixture containing 282 μL of water, 80 μL of phosphate buffer (0.5 M, pH 7.4), 20 μL of NADPH Regenerating System Solution A (BD Bioscience, San Jose, Calif.) and 4 μL of NADPH Regenerating System Solution B (BD Bioscience, San Jose, Calif.) in a total volume of 391.2 μL. Following preincubation, the reaction was initiated by addition of 8.8 μL of either human liver microsomes (BD Gentest, San Jose, Calif.), mouse liver microsomes (Life technologies, Rockford, Ill.), at a protein concentration of 0.5 mg/mL. Aliquots of 50 μL were taken at time intervals of 0 (without microsomes), 10, 20, 30, 40, 50 and 60 minutes. Each aliquot was added to 100 μL of cold acetonitrile solution containing 1 μM/2 μM internal standard. This was followed by sonication for 10 seconds and centrifugation at 10,000 rpm for 5 minutes. 100 μL of the supernatant was transferred into Spin-X HPLC filter tubes (Corning Incorporated, NY) and centrifuged at 13,000 rpm for 5 minutes. […] The ratio of the peak areas of the internal standard and test compound was calculated for every time point and the natural log of the ratio were plotted against time to determine the linear slope (k). […] All experiments were repeated three times in duplicates.

[4] = Microsomal stability assay, mouse liver microsomes; format: in vitro ADME; settings: 10 μM test compound, 0.5 mg/mL protein, 37° C.; for half-life at 10 μM: mouse, liver microsomes, pH 7.4, read-out: Half-life (min) (MLM)
Description: as §1

HEPG2 cell line = experiment: Cytotoxicity study, CellTiter-Glo cell viability; format: cell-based, Human; settings: HEPG2, 48 hours incubation
Description: Reagents and Instrumentation: Human liver hepatocellular carcinoma (HEPG2) cell line was purchased (ATCC) and cultured in 75 cm2 flasks (CellStar). Cells were grown in DMEM/High Glucose (Hyclone, #SH3024301) media to which non-essential amino acids (Hyclone, #SH30238.01), 10 mM HEPES (Hyclone, #SH302237.01), 5×106 units of penicillin and streptomycin (Hyclone, #SV30010), and 10% of heat inactivated fetal bovine serum (Gibco, #10082147) were added. Cells were harvested using 0.05% Trypsin (Hyclone, #SH3023601), which disrupts the cell monolayer and proteolytically cleaves the bonds between the cells and flask. The cell viability assay was evaluated using CellTiter-Glo™ Luminescent Cell Viability Assay Kit (Promega, Madison, Wis.) which contains luciferase and all its substrate except ATP. The controls for the cytotoxicity assay used were (E)-10-(bromotriphenylphosphoranyl)decyl 4-(4-(tert-butyl)phenyl)-4-oxobut-2-enoate (400 μM in DMSO, positive control) and DMSO (negative control). Cell culture was performed in a Baker Company Class II Biological Safety Cabinet. All luminescence readings were performed on a Tecan Infinite M1000 plate reader. Small volume transfers were performed on the Tecan Freedom EVO liquid handling system with a 100 nL pin tool transfer (V&P Scientific). Serial dilutions were done in 96-well polypropylene plates (Corning, #3365) and assays were conducted in 384-well white optical bottom plates.
Luminescence-Based VDR-Mediated Transcription Assay Protocol: After 48 hours of incubation at 37 °C with 5% CO2, the cells were harvested with 4 mL of 0.05% Trypsin, added to 10 mL of the assay buffer, DMEM/High Modified buffer without phenol red, and spun down for 3 minutes at 1000 rpm. The media was removed and cells were resuspended in the DMEM assay media. To each well, 40 μL of cells were added to yield a final concentration of 15,000 cells per well. The plates were then spun down for 2 minutes at 1000 rpm. After 2 hours, plated cells were treated with 100 nL×4 of small molecules and controls which were added using the pin tool. After 48 hours of incubation at 37 °C with 5% CO2, 20 μL of Cell Titer-Glo™ Luminescence Assay Kit (cytotoxicity assay) were added and luminescence was read. Controls were measured within each plate to determine the z′ factor (Equation 1) and to enable data normalization. Three independent experiments were performed in quadruplicate and data was analyzed using nonlinear regression with variable slope (GraphPrism, Equation 2). The luminescence intensity of control (untreated) cells was taken as 100% viability, and the relative cell viability compared to control was calculated. Data are presented as the means±SEM of a series of three experiments.

[5] = Solubility of compounds in DI water; format: physicochemical; settings: thermodynamic from solid; 2 mg in 2 mL DI water, sonicated at 60° C. for 2 hours, cooled to room temperature, filtered
Description: The solubility of the compounds was examined by sonicating 2 mg of each respective compound in 2 mL of DI water at 60° C. for 2 hours. Solutions were cooled to room temperature and then filtered using a syringe filter. The resultant solutions were injected into a mass spectrometer using a SIM method, calibrated to the respective retention times and mass units of each compound. Calibration curves using standard solutions (5 data points) of each compound dissolved in methanol were used to calculate the unknown aqueous concentrations of each compound.

Row | Compound | half-life [1] [h] | rescue of METH-impaired PPI ([2]; listed as 1-29) | % left after 1 hr. (HLM) [3] [%] | half-life at 10 μM ([3]; human, liver microsomes, pH 7.4, read-out: Half-life (min) (HLM)) | % left after 1 hr. (MLM) [4] [%] | Half-life (min) (MLM) [4] | rescue of METH-impaired PPI [2] | Half-life (min) (HLM) [3] | half-life at 10 μM [4] [min] | toxicity at 400 μM (HEPG2 cell line) | solubility at 2 h [5] [µg/mL]
1 | [2H]C([2H])([2H])Oc1ccc2c3nn(-c4ccc(OC)cc4)c(=O)c-3c[nH]c2c1 [RV-I-029, 7-Methoxy-d3-2-(4-methoxyphenyl)-2,5-dihydro-3H-pyrazolo[4,3-c]quinolin-3-one] | > 50 | effective | 95.35 ± 1 | 2970 ± 742 | 93.17 ± 016 | 857.8 ± 235 | – | – | – | – | –
2 | [2H]C([2H])([2H])Oc1cccc(-n2nc3c4cc(Cl)ccc4[nH]cc-3c2=O)c1 [DK-I-59-1, 8-Chloro-2-(3-methoxy-d3-phenyl)-2,5-dihydro-3H-pyrazolo[4,3-c]quinolin-3-one] | – | – | 93 ± 0.09 | – | 76.6 ± 0.11 | – | effective | 649 ± 81 | 166 ± 7.5 | non-toxic | –
3 | [2H]C([2H])([2H])Oc1ccc(-n2nc3c4ccc(OC([2H])([2H])[2H])cc4[nH]cc-3c2=O)cc1 [DK-I-60-3, 7-Methoxy-d3-2-(4-methoxy-d3-phenyl)-2,5-dihydro-3H-pyrazolo[4,3-c]quinolin-3-one] | – | – | 91.51 ± 0.18 | – | 93.08 ± 0.19 | 846.85 ± 276 | – | 780.73 ± 238 | – | non-toxic | 16 (≈ 48.9 µM)
4 | [2H]C([2H])([2H])Oc1ccc(-n2nc3c4ccc(Br)cc4[nH]cc-3c2=O)cc1 [DK-I-58-1, 7-Bromo-2-(4-methoxy-d3-phenyl)-2,5-dihydro-3H-pyrazolo[4,3-c]quinolin-3-one] | – | – | 81.5 ± 0.11 | – | 73.8 ± 0.15 | – | – | 204.6 ± 10 | 140 ± 7.18 | non-toxic | 9.2 (≈ 24.7 µM)
5 | COc1ccc(-n2nc3c4ccc(Br)cc4[nH]cc-3c2=O)cn1 [DK-II-48-1, 7-Bromo-2-(6-methoxypyridin-3-yl)-2,5-dihydro-3H-pyrazolo[4,3-c]quinolin-3-one] | – | – | 93.4 ± 0.11 | – | 93.12 ± 0.22 | 680.6 ± 114 | – | 727.7 ± 115 | – | non-toxic | –

Source: patent US10865203B2, “Ligands selective to alpha 6 subunit-containing GABAA receptors and their methods of use” (UWM Research Foundation, Inc., priority 2015, dated 2020)
